According to the supplement of paper PMC8967900:

What was measured:
Assay in all cases: selective drug sensitivity score (sDSS, relative to normal bone marrow) (sDSS (score)); higher = more potent and effective on the cell line relative to normal bone marrow cells
Settings in all cases: 72 h
ALL-SIL = system: ALL-SIL
CCRF-CEM = system: CCRF-CEM
COG-LL-332h = system: COG-LL-332h
COG-LL-355h = system: COG-LL-355h
DND-41 = system: DND-41
HPB-ALL = system: HPB-ALL
KASUMI-10 = system: KASUMI-10
KASUMI-2 = system: KASUMI-2
LC4-1 = system: LC4-1
MHH-CALL-3 = system: MHH-CALL-3
NALL-1 = system: NALL-1
NALM-16 = system: NALM-16
NALM-6 = system: NALM-6
P30-OHKUBO = system: P30-OHKUBO
PF-382 = system: PF-382
RCH-ACV = system: RCH-ACV
REH = system: REH
RPMI-8402 = system: RPMI-8402
SEM cells = system: SEM cells
SUP-B15 = system: SUP-B15
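Also: ALL cell lines in 384-well plates, five doses spanning 10,000-fold, each plate scaled between vehicle and 100 µmol/L benzalkonium chloride controls, sDSS an adapted area-under-curve metric.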

O=C(Nc1cnn2ccc(N3CCC[C@@H]3c3cc(F)ccc3F)nc12)N1CC[C@H](O)C1 [Larotrectinib] (top concentration 1000 nM)
selective drug sensitivity score (ALL-SIL): -0.62 | selective drug sensitivity score (CCRF-CEM): -0.62 | selective drug sensitivity score (COG-LL-332h): -0.62 | selective drug sensitivity score (COG-LL-355h): 0.48 | selective drug sensitivity score (DND-41): -0.62 | selective drug sensitivity score (HPB-ALL): 4.18 | selective drug sensitivity score (KASUMI-10): -0.62 | selective drug sensitivity score (KASUMI-2): -0.62 | selective drug sensitivity score (LC4-1): 1.28 | selective drug sensitivity score (MHH-CALL-3): -0.62 | selective drug sensitivity score (NALL-1): -0.62 | selective drug sensitivity score (NALM-16): -0.62 | selective drug sensitivity score (NALM-6): 0.48 | selective drug sensitivity score (P30-OHKUBO): -0.52 | selective drug sensitivity score (PF-382): -0.62 | selective drug sensitivity score (RCH-ACV): 1.48 | selective drug sensitivity score (REH): -0.62 | selective drug sensitivity score (RPMI-8402): -0.62 | selective drug sensitivity score (SEM cells): -0.62 | selective drug sensitivity score (SUP-B15): 0.08

CC[C@H](CO)Nc1nc(NCc2ccccc2)c2ncn(C(C)C)c2n1 [Seliciclib] (top concentration 10000 nM)
selective drug sensitivity score (ALL-SIL): 3.06 | selective drug sensitivity score (CCRF-CEM): 2.06 | selective drug sensitivity score (COG-LL-332h): 2.16 | selective drug sensitivity score (COG-LL-355h): 2.46 | selective drug sensitivity score (DND-41): 9.26 | selective drug sensitivity score (HPB-ALL): -0.64 | selective drug sensitivity score (KASUMI-10): 0.86 | selective drug sensitivity score (KASUMI-2): -1.04 | selective drug sensitivity score (LC4-1): 1.06 | selective drug sensitivity score (MHH-CALL-3): -1.04 | selective drug sensitivity score (NALL-1): -0.74 | selective drug sensitivity score (NALM-16): -1.04 | selective drug sensitivity score (NALM-6): -1.04 | selective drug sensitivity score (P30-OHKUBO): -0.14 | selective drug sensitivity score (PF-382): -1.04 | selective drug sensitivity score (RCH-ACV): 2.16 | selective drug sensitivity score (REH): -0.14 | selective drug sensitivity score (RPMI-8402): -0.54 | selective drug sensitivity score (SEM cells): -0.04 | selective drug sensitivity score (SUP-B15): 3.26

CN1CCN(C(=O)c2ccc3cc(CCNc4ncnc5ccc(C#N)cc45)ccc3c2)CC1 [Senexin_B] (top concentration 1000 nM)
selective drug sensitivity score (ALL-SIL): -0.6 | selective drug sensitivity score (CCRF-CEM): 1.7 | selective drug sensitivity score (COG-LL-332h): 0.6 | selective drug sensitivity score (COG-LL-355h): -0.6 | selective drug sensitivity score (DND-41): -0.6 | selective drug sensitivity score (HPB-ALL): -0.6 | selective drug sensitivity score (KASUMI-10): 4.5 | selective drug sensitivity score (KASUMI-2): -0.6 | selective drug sensitivity score (LC4-1): -0.6 | selective drug sensitivity score (MHH-CALL-3): -0.1 | selective drug sensitivity score (NALL-1): -0.6 | selective drug sensitivity score (NALM-16): -0.6 | selective drug sensitivity score (NALM-6): 0.9 | selective drug sensitivity score (P30-OHKUBO): 0.4 | selective drug sensitivity score (PF-382): -0.1 | selective drug sensitivity score (RCH-ACV): 2 | selective drug sensitivity score (REH): -0.6 | selective drug sensitivity score (RPMI-8402): 1.1 | selective drug sensitivity score (SEM cells): -0.6 | selective drug sensitivity score (SUP-B15): 2.8

C[C@H]1CN(C2COC2)CCN1c1ccc(Nc2cc(-c3ccnc(N4CCn5c(cc6c5CC(C)(C)C6)C4=O)c3CO)cn(C)c2=O)nc1 [GDC-0853] (top concentration 1000 nM)
selective drug sensitivity score (ALL-SIL): 1.6 | selective drug sensitivity score (CCRF-CEM): 0 | selective drug sensitivity score (COG-LL-332h): 0 | selective drug sensitivity score (COG-LL-355h): 0 | selective drug sensitivity score (DND-41): 0 | selective drug sensitivity score (HPB-ALL): 0.4 | selective drug sensitivity score (KASUMI-10): 0 | selective drug sensitivity score (KASUMI-2): 0 | selective drug sensitivity score (LC4-1): 0 | selective drug sensitivity score (MHH-CALL-3): 0 | selective drug sensitivity score (NALL-1): 0 | selective drug sensitivity score (NALM-16): 0 | selective drug sensitivity score (NALM-6): 0 | selective drug sensitivity score (P30-OHKUBO): 0 | selective drug sensitivity score (PF-382): 0 | selective drug sensitivity score (RCH-ACV): 0 | selective drug sensitivity score (REH): 0.2 | selective drug sensitivity score (RPMI-8402): 0 | selective drug sensitivity score (SEM cells): 0 | selective drug sensitivity score (SUP-B15): 0

CCC1=C[C@@H]2CN(C1)Cc1c([nH]c3ccccc13)[C@@](C(=O)OC)(c1cc3c(cc1OC)N(C)[C@H]1[C@@](O)(C(=O)OC)[C@H](OC(C)=O)[C@]4(CC)C=CCN5CC[C@]31[C@@H]54)C2 [Vinorelbine] (top concentration 10000 nM)
selective drug sensitivity score (ALL-SIL): 23.6 | selective drug sensitivity score (CCRF-CEM): 17.8 | selective drug sensitivity score (COG-LL-332h): 20.5 | selective drug sensitivity score (COG-LL-355h): 5.98 | selective drug sensitivity score (DND-41): 11.8 | selective drug sensitivity score (HPB-ALL): 14.6 | selective drug sensitivity score (KASUMI-10): 15.7 | selective drug sensitivity score (KASUMI-2): 17.8 | selective drug sensitivity score (LC4-1): 23.4 | selective drug sensitivity score (MHH-CALL-3): 11 | selective drug sensitivity score (NALL-1): 16.1 | selective drug sensitivity score (NALM-16): 18.3 | selective drug sensitivity score (NALM-6): 14.9 | selective drug sensitivity score (P30-OHKUBO): 21.5 | selective drug sensitivity score (PF-382): 11 | selective drug sensitivity score (RCH-ACV): 25.1 | selective drug sensitivity score (REH): 26.6 | selective drug sensitivity score (RPMI-8402): 21 | selective drug sensitivity score (SEM cells): 24.1 | selective drug sensitivity score (SUP-B15): 27.2

CN1CCN(C2CCN(C(=O)Nc3cc(Oc4ccc(NC(=O)C5(C(=O)Nc6ccc(F)cc6)CC5)c(F)c4)ccn3)CC2)CC1 [Golvatinib] (top concentration 2500 nM)
selective drug sensitivity score (ALL-SIL): 4.56 | selective drug sensitivity score (CCRF-CEM): -0.14 | selective drug sensitivity score (COG-LL-332h): 0.86 | selective drug sensitivity score (COG-LL-355h): -0.14 | selective drug sensitivity score (DND-41): -0.04 | selective drug sensitivity score (HPB-ALL): 6.76 | selective drug sensitivity score (KASUMI-10): 3.26 | selective drug sensitivity score (KASUMI-2): -0.14 | selective drug sensitivity score (LC4-1): 2.46 | selective drug sensitivity score (MHH-CALL-3): -0.14 | selective drug sensitivity score (NALL-1): -0.14 | selective drug sensitivity score (NALM-16): -0.14 | selective drug sensitivity score (NALM-6): 1.06 | selective drug sensitivity score (P30-OHKUBO): 0.56 | selective drug sensitivity score (PF-382): -0.14 | selective drug sensitivity score (RCH-ACV): 4.26 | selective drug sensitivity score (REH): 2.46 | selective drug sensitivity score (RPMI-8402): 0.26 | selective drug sensitivity score (SEM cells): 6.56 | selective drug sensitivity score (SUP-B15): 3.56

CCN(c1cc(-c2ccc(CN3CCOCC3)cc2)cc(C(=O)NCc2c(C)cc(C)[nH]c2=O)c1C)C1CCOCC1 [Tazemetostat] (top concentration 10000 nM)
selective drug sensitivity score (ALL-SIL): 0.12 | selective drug sensitivity score (CCRF-CEM): 1.02 | selective drug sensitivity score (COG-LL-332h): -0.08 | selective drug sensitivity score (COG-LL-355h): -0.08 | selective drug sensitivity score (DND-41): 0.02 | selective drug sensitivity score (HPB-ALL): -0.08 | selective drug sensitivity score (KASUMI-10): -0.08 | selective drug sensitivity score (KASUMI-2): -0.08 | selective drug sensitivity score (LC4-1): -0.08 | selective drug sensitivity score (MHH-CALL-3): -0.08 | selective drug sensitivity score (NALL-1): 8.22 | selective drug sensitivity score (NALM-16): -0.08 | selective drug sensitivity score (NALM-6): -0.08 | selective drug sensitivity score (P30-OHKUBO): 0.42 | selective drug sensitivity score (PF-382): -0.08 | selective drug sensitivity score (RCH-ACV): -0.08 | selective drug sensitivity score (REH): -0.08 | selective drug sensitivity score (RPMI-8402): 0.22 | selective drug sensitivity score (SEM cells): 2.42 | selective drug sensitivity score (SUP-B15): -0.08

c1cn2cc(-c3ccc4cn[nH]c4c3)nc(Nc3ccc(N4CCOCC4)cc3)c2n1 [Entospletinib] (top concentration 5000 nM)
selective drug sensitivity score (ALL-SIL): -0.64 | selective drug sensitivity score (CCRF-CEM): -0.64 | selective drug sensitivity score (COG-LL-332h): -0.64 | selective drug sensitivity score (COG-LL-355h): 1.06 | selective drug sensitivity score (DND-41): -0.64 | selective drug sensitivity score (HPB-ALL): -0.64 | selective drug sensitivity score (KASUMI-10): -0.64 | selective drug sensitivity score (KASUMI-2): -0.64 | selective drug sensitivity score (LC4-1): -0.64 | selective drug sensitivity score (MHH-CALL-3): -0.64 | selective drug sensitivity score (NALL-1): -0.64 | selective drug sensitivity score (NALM-16): -0.64 | selective drug sensitivity score (NALM-6): 1.26 | selective drug sensitivity score (P30-OHKUBO): 6.96 | selective drug sensitivity score (PF-382): -0.64 | selective drug sensitivity score (RCH-ACV): 12.3 | selective drug sensitivity score (REH): -0.64 | selective drug sensitivity score (RPMI-8402): -0.64 | selective drug sensitivity score (SEM cells): 4.56 | selective drug sensitivity score (SUP-B15): 1.36

O=C(O)c1ccc(CN2CCC(CN[C@@H]3C[C@H]3c3ccccc3)CC2)cc1 (top concentration 100000 nM)
selective drug sensitivity score (ALL-SIL): -0.62 | selective drug sensitivity score (CCRF-CEM): -0.02 | selective drug sensitivity score (COG-LL-332h): 0.08 | selective drug sensitivity score (COG-LL-355h): 0.58 | selective drug sensitivity score (DND-41): -0.62 | selective drug sensitivity score (HPB-ALL): -0.62 | selective drug sensitivity score (KASUMI-10): -0.62 | selective drug sensitivity score (KASUMI-2): -0.62 | selective drug sensitivity score (LC4-1): -0.02 | selective drug sensitivity score (MHH-CALL-3): -0.62 | selective drug sensitivity score (NALL-1): -0.32 | selective drug sensitivity score (NALM-16): -0.62 | selective drug sensitivity score (NALM-6): -0.62 | selective drug sensitivity score (P30-OHKUBO): -0.62 | selective drug sensitivity score (PF-382): -0.42 | selective drug sensitivity score (RCH-ACV): -0.62 | selective drug sensitivity score (REH): -0.22 | selective drug sensitivity score (RPMI-8402): -0.22 | selective drug sensitivity score (SEM cells): 0.28 | selective drug sensitivity score (SUP-B15): -0.52
